Source: publication PMC4626104, “Inhibition on Proteasome β1 Subunit Might Contribute to the Anti-Cancer Effects of Fangchinoline in Human Prostate Cancer Cells” (PLoS ONE, 2015)
Like-named read-outs stand apart in the source and are kept apart here.

How the values were obtained:
PC-3 cells [1] = test: MTT assay of cell proliferation, PC-3 cells; format: cell-based; details: Homo sapiens, read-out: IC50 inhibiting cell proliferation
Description: (§1) The inhibitive effects of fangchinoline on proliferation of PC-3 cells or LnCap cells was observed by checking cell viability of cells using MTT assay as described before. Briefly, cells were seeded in 96-well plates at a density of 5×10^4 cells/mL for PC-3 cell and 4×10^4 cells/mL for LnCap cells. After overnight culture, the media were changed into fresh media containing various concentrations of fangchinoline or 0.1% DMSO (solvent control) for 24, 48 h or 72 h. Cell viability was evaluated by measuring the mitochondrial-dependent conversion of the yellow tetrazolium salt MTT to purple formazan crystals by metabolic active cells. The optical density (proportional to the number of live cells) was assessed with a Microplate Reader Bio-Rad 550 at 570 nm. IC50 value (half-maximal inhibitory concentration) was calculated by the Logit method.

[2] = test system: T1, cellular proteasome of LnCap cells; test: Cellular proteasome activities of LnCap cells; format: cell-based, human; details: 24 h
T1 construct: endogenous in cells; host or cells: LnCap cells, whole cell extract
Description: (§2) Cells were treated with either solvent control (0.1% DMSO), fangchinoline at different concentrations, or 1 μM carfilzomib (positive control) for 24 h at 37 °C. The enzymatic activities of cellular proteasome in cell lysate were measured as reported in our previous paper. Briefly, cells were harvested, washed with PBS and then lysed in proteasome activity assay buffer for 30 min at 4°C. The homogenate was then centrifuged at 12000 × g for 30 min at 4°C. The supernatant was collected as whole cell extract and the protein content in the supernatant was measured with the Bradford reagent. Catalytic activities of cellular proteasome were assayed by adding whole cell extract (containing 30 μg protein) to 100 μL of proteasome activity assay buffer containing 50 μM fluorogenic peptide substrates such as Z-LLE-AMC for detecting C-L activity, Z-ARR-AMC for detecting T-L activity or Suc-LLVY-AMC for detecting CT-L activity, respectively. The release of fluorogenic AMC from the peptide substrates was then measured as described above.

PC-3 cells [3] = test: Flow cytometric analysis of apoptosis (Annexin V/PI) in PC-3 cells; format: cell-based, human; details: 24 h
Description: The induction of cell cycle arrest and apoptosis by fangchinoline in PC-3 cells was observed by using flow cytometric analysis as described in our previous reports. Briefly, for flow cytometry analysis of cell cycle, cells were collected after treatment, washed with PBS and then fixed with 70% ethanol at 4°C for overnight. After PBS washes, cells were re-suspended in staining buffer (10 mg/mL RNase A and […] propidium iodide in cold PBS) for 30 min in dark at room temperature and then analyzed using FACSCalibur Flow Cytometer. For flow cytometric analysis of apoptosis, Alexa Fluor 488 Annexin V & PI /Dead cell Apoptosis Kit (Invitrogen) was used. Cells were collected after treatment, washed with PBS and then resuspended in binding buffer and then incubated with Annexin V-FITC and propidium iodide for 15 min in dark at room temperature. Then, flow cytometric analysis was conducted and data analysis was performed with CellQuest software.

[4] = test system: T2, proteasome of PC-3 tumor xenografts; test: Proteasome activities of tumor xenografts; format: in vivo, nude mice
T2 construct: from tissue; host or cells: PC-3 tumour xenografts from Balb/c-nu-nu mice, homogenate supernatant
Description: as §2
Male nude immunodeficient mice Balb/c-nu-nu, aged 4 weeks, were purchased from Shanghai Experimental Animal Center. […] Tumor sizes were measured every 4 days using calipers and their volumes were calculated using a standard formula: width^2×length/2. […] Body weight was measured daily. […]

LnCap cells = test: MTT assay of cell proliferation, LnCap cells; format: cell-based; details: Homo sapiens, read-out: IC50 inhibiting cell proliferation
Description: as §1

Compound: COc1ccc2cc1Oc1ccc(cc1)C[C@H]1c3cc(c(OC)cc3CCN1C)Oc1c(O)c(OC)cc3c1[C@H](C2)N(C)CC3 [fangchinoline]
- IC50 (PC-3 cells [1]; 24 h): 27.5 ± 3.35 µM
- IC50 (PC-3 cells [1]; 48 h): 13.1 ± 1.58 µM
- IC50 (PC-3 cells [1]; 72 h): 7.25 ± 0.312 µM
- Effect on CT-L activity of cellular proteasome [2]: did not affect
- Effect on T-L activity of cellular proteasome [2]: did not affect
- Inhibition of C-L activity of cellular proteasome [2]: significantly inhibit
- Percentage (%) of apoptotic cells (Annexin^+/PI^+) (PC-3 cells [3]; 5 μM): 6.74±1.14 %
- Percentage (%) of apoptotic cells (Annexin^+/PI^+) (PC-3 cells [3]; 8 μM): 10.79±0.51 %
- Percentage (%) of apoptotic cells (Annexin^+/PI^+) (PC-3 cells [3]; 12 μM): 13.53±0.19 %
- Percentage (%) of apoptotic cells (Annexin^+/PI^+) (PC-3 cells [3]; 18 μM): 28.10±5.93 %
- Percentage (%) of apoptotic cells (Annexin^+/PI^+) (PC-3 cells [3]; 27 μM): 37.52±4.04 %
- Percentage (%) of apoptotic cells (Annexin^+/PI^+) (PC-3 cells [3]; 40 μM): 49.77±2.23 %
- Significance of decrease in proteasome activity of tumor xenografts ([4]; 50 mg/kg group): significant
- Proteasome activities of tumor xenografts compared with vehicle control ([4]; fangchinoline-treated groups (25 and 50 mg/kg)): decreased
- IC50 (LnCap cells; 24 h): 36.2 ± 6.33 µM
- IC50 (LnCap cells; 48 h): 11.6 ± 0.22 µM
- IC50 (LnCap cells; 72 h): 12.7 ± 0.59 µM
